Among the data in PubChem BioAssay AID2060343 (Molecular Pharmacology Branch, DTP, NCI, 2025) are IC50 and viability, T/C values, retold here.

The assay relates to 138582-337-R-J1-PDC spheroids with HUVEC/MSC, viability. Briefly: Anticancer human tumor 138582-337-R-J1-PDC patient-derived Merkel cell tumor cell line growth inhibition [IpAb]. Particulars: for viability, T/C: stronger effect = lower value. The source says:
Combinatorial screen of targeted agents with ipatasertib and abemaciclib in multi-cell type tumor spheroids
A high-throughput screen of multi-cell type tumor spheroids was designed to identify active combinations of targeted small molecules and ipatasertib or abemaciclib. Complex spheroids include a stromal component modeled by human endothelial cells (HUVEC) and fibroblasts modeled by human mesenchymal stem cells (MSCs). The concentration ranges selected for each drug and investigational agent were based upon clinically achievable concentrations if the clinical Cmax of the agent was known.
Compounds. The drugs and investigational agents: ipatasertib (NSC767898), abemaciclib(NSC768073), selumetinib (NSC741078), trametinib (758246), adavosertib (NSC754352), everolimus (NSC733504), sapanisertib (NSC764658), vemurafenib (NSC761431), venetoclax (NSC766270), copanlisib (NSC809693), apelisib (NSC765974), palbociblib (NSC758247), vemurafenib (NSC761431), dabrafenib (NSC764134), ravoxertinib (NSC781343), BMS-387032 (NSC767048), sotorasib (NSC818433), talazoparib (NSC767125) and afursertib (NSC778305), were obtained from the National Cancer Institute (NCI) Developmental Therapeutics Program Chemical Repository. The FDA-approved anticancer drug set is available from the NCI Developmental Therapeutics Program. […] The stock solutions were prepared in dimethyl sulfoxide (DMSO, Sigma-Aldrich, St. Louis, MO, cat. D2650) at 800-fold the tested concentration and stored at -70 degrees C prior to their use. All drugs and investigational agents were tested over a range starting from a high concentration at or near the clinical Cmax and decreasing in half-log increments. If the clinical Cmax for an agent had not been determined, the highest concentration tested was 10 microM.
NCI60 Cell Culture. NCI60 cell lines were obtained from the NCI Developmental Therapeutics Program Tumor Repository. For each lot of cells, the Repository performed Applied Biosystems AmpFLSTR Identifiler testing with PCR amplification to confirm consistency with the published Identifier STR profile for each cell line. Cells were kept in continuous culture for no more than 20 passages. The optimal seeding densities for each of the cell lines at each time point assessed were determined prior to performing the concentration response studies. Briefly, the NCI60 human tumor lines were grown as monolayers in RPMI 1640 medium supplemented with 10% FBS and 2 mmol/L L-glutamine.
An additional 9 lines were from the NCI60 cell line panel including MDA-MB-231 breast carcinoma, MDA-MB-468 breast carcinoma, MCF7 breast carcinoma, Hs578T breast carcinoma, MALME-3M melanoma, SK-MEL-2 melanoma, SK-OV-3 ovarian carcinoma, DU-145 prostate carcinoma, PC-3 prostate carcinoma, all cell lines along with major genetic alterations are listed on Table 2. Pooled donor human umbilical vein endothelial cells (HUVEC, Lonza, cat. CC-2519) and human mesenchymal stem cells (hMSC, Lonza, cat. PT-2501) were purchased from Lonza (Walkersville, MD).
PDMR cell lines were grown in complete medium (DC medium): Dulbecco's modified Eagle's medium (DMEM)/F12 supplemented with 5% fetal bovine serum (FBS), 2 mM L-glutamine, 100 U/mL penicillin and 100 µg/ml streptomycin, 0.4 µg/ml hydrocortisone, 10 ng/ml epidermal growth factor (EGF) recombinant human protein, 24 µg/mL adenine, and 0.1 mg/mL primocin. During culture from frozen stock vials, PDMR cells were cultured in the same medium containing 10 µM Y-27632 (see Table 3). The PDCs were cultured in complete DMEM/F12 media without 10 microM Y-27632 dihydrochloride for at least two passages prior to the screen. The pooled donor HUVEC and hMSC were cultured in endothelial cell growth medium 2 (PromoCell, Heidelberg, Germany, cat. C-22011) and mesenchymal stem cell growth medium 2 (PromoCell, cat. C-28009), respectively. For all experiments, HUVEC and hMSC were used at passages </=5.
[…]

Setting [1] is: curve of first compound, second compound 0.1 µM.
Where [2] appears, read: curve of first compound, second compound 0.316 µM.
Setting [3] is: curve of first compound, second compound 1 µM.
Where [4] appears, read: curve of first compound, second compound 3.16 µM.
[5] abbreviates: curve of first compound, second compound 10 µM.
Setting [6] is: second compound 0.1 µM, first compound 0.00949 µM.
The mark [7] stands for this setting: second compound 0.1 µM, first compound 0.03 µM.
[8] abbreviates: second compound 0.1 µM, first compound 0.0949 µM.
[9] abbreviates: second compound 0.1 µM, first compound 0.3 µM.
[10] abbreviates: second compound 0.316 µM, first compound 0.00949 µM.
Setting [11] is: second compound 0.316 µM, first compound 0.03 µM.
Setting [12] is: second compound 0.316 µM, first compound 0.0949 µM.
The mark [13] stands for this setting: second compound 0.316 µM, first compound 0.3 µM.
The mark [14] stands for this setting: second compound 1 µM, first compound 0.00949 µM.
Setting [15] is: second compound 1 µM, first compound 0.03 µM.
[16] abbreviates: second compound 1 µM, first compound 0.0949 µM.
Setting [17] is: second compound 1 µM, first compound 0.3 µM.
Where [18] appears, read: second compound 3.16 µM, first compound 0.00949 µM.
[19] abbreviates: second compound 3.16 µM, first compound 0.03 µM.
[20] abbreviates: second compound 3.16 µM, first compound 0.0949 µM.
Setting [21] is: second compound 3.16 µM, first compound 0.3 µM.
The mark [22] stands for this setting: second compound 10 µM, first compound 0.00949 µM.
Setting [23] is: second compound 10 µM, first compound 0.03 µM.
[24] abbreviates: second compound 10 µM, first compound 0.0949 µM.
[25] abbreviates: second compound 10 µM, first compound 0.3 µM.

Each structure is given as a SMILES string. Values joined by “and” are separate entries in the source; they are usually repeats but may differ in a detail not shown here. Equal values may be shown once.
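Note: spheroids exposed to compounds for seven days.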

One may read the IC50 as the concentration that inhibits the measured activity by half. For orientation: viability, T/C means the ratio of treated to control. Consider `CC(C)(C)c1cnc(CSc2cnc(NC(=O)C3CCNCC3)s2)o1` + CC(C)NCC(C(=O)N1CCN(c2ncnc3c2C(C)CC3O)CC1)c1ccc(Cl)cc1, for which the IC50 under setting [1] worked out at 94.5 nM; the IC50 under setting [2] came to 76.7 nM; the IC50 under setting [3] was 52.9 nM; the half-maximal inhibitory concentration (IC50) under setting [4] came to 37.1 nM; the IC50 under setting [5] is less than 9.49 nM. In addition, the viability, T/C by setting is: under setting [6], 104%; under setting [7], 97.3%; under setting [8], 50.3%; under setting [9], 0.31%; (second compound 0.1 µM, first compound 0.949 µM) 0.3%; (second compound 0.1 µM, first compound 3 µM) 0.37%. The viability, T/C is 79% under setting [10]; 74.3% under setting [11]; 44.2% under setting [12]; 0.31% under setting [13]; 0.36% (second compound 0.316 µM, first compound 0.949 µM); 0.44% (second compound 0.316 µM, first compound 3 µM). Also, the viability, T/C reads like this: under setting [14], 72.7%; under setting [15], 72.2%; under setting [16], 27%; under setting [17], 0.41%; (second compound 1 µM, first compound 0.949 µM) 0.35%; (second compound 1 µM, first compound 3 µM) 0.37%. Besides, the viability, T/C under setting [18] was 55.2%; the viability, T/C under setting [19] is 58.7%; the viability, T/C under setting [20] was 19.5%; the viability, T/C under setting [21] was 0.33%; the viability, T/C (second compound 3.16 µM, first compound 0.949 µM) is 0.23%; the viability, T/C (second compound 3.16 µM, first compound 3 µM) is 0.81%. For the same compound, the viability, T/C is 43.8% under setting [22]; 43.9% under setting [23]; 5.74% under setting [24]; 0.5% under setting [25]; 0.35% (second compound 10 µM, first compound 0.949 µM); 0.49% (second compound 10 µM, first compound 3 µM).
As to `Cn1nccc1Nc1nccc(-c2ccn(C(CO)c3ccc(Cl)c(F)c3)c(=O)c2)n1` (stereo not drawn), the viability, T/C by setting is: (compound 0.0316 µM) 96.2% and 97.2%; (compound 0.1 µM) 94.1% and 93.3%; (compound 0.316 µM) 106% and 92.3%; (compound 1 µM) 109% and 104%; (compound 3.16 µM) 124% and 111%; (compound 10 µM) 132% and 127%. For the same compound, the IC50 (curve of compound) was more than 10000 nM.
For the compound `CC(C)(C)c1cnc(CSc2cnc(NC(=O)C3CCNCC3)s2)o1`, the viability, T/C by setting is: (compound 0.00949 µM) 110% and 99.4%; (compound 0.03 µM) 110% and 114%; (compound 0.0949 µM) 45.9% and 84.2%; (compound 0.3 µM) 0.46% and 0.83%; (compound 0.949 µM) 0.54% and 0.68%; (compound 3 µM) 0.61% and 0.65%. Also, the IC50 (curve of compound) was 88.2 nM and 152 nM.
Regarding `CC(=O)c1c(C)c2cnc(Nc3ccc(N4CCNCC4)cn3)nc2n(C2CCCC2)c1=O` + CC(C)NCC(C(=O)N1CCN(c2ncnc3c2C(C)CC3O)CC1)c1ccc(Cl)cc1, the IC50 is, setting by setting: under setting [1], more than 300 nM; under setting [2], more than 300 nM; under setting [3], more than 300 nM; under setting [4], more than 300 nM; under setting [5], less than 0.949 nM. Also, the viability, T/C by setting is: (second compound 0.1 µM, first compound 0.000949 µM) 101%; (second compound 0.1 µM, first compound 0.003 µM) 98.6%; under setting [6], 92.3%; under setting [7], 94.3%; under setting [8], 89.2%; under setting [9], 103%. In addition, the viability, T/C reads like this: (second compound 0.316 µM, first compound 0.000949 µM) 76.2%; (second compound 0.316 µM, first compound 0.003 µM) 74.1%; under setting [10], 78.6%; under setting [11], 80.7%; under setting [12], 66.5%; under setting [13], 80.6%. The viability, T/C runs as follows: (second compound 1 µM, first compound 0.000949 µM) 65.5%; (second compound 1 µM, first compound 0.003 µM) 62.5%; under setting [14], 59.6%; under setting [15], 52.8%; under setting [16], 65%; under setting [17], 64.3%. For the same compound, the viability, T/C (second compound 3.16 µM, first compound 0.000949 µM) is 51%; the viability, T/C (second compound 3.16 µM, first compound 0.003 µM) is 54.5%; the viability, T/C under setting [18] was 54%; the viability, T/C under setting [19] is 47.1%; the viability, T/C under setting [20] is 61.6%; the viability, T/C under setting [21] is 47%. In addition, the viability, T/C (second compound 10 µM, first compound 0.000949 µM) is 45.1%; the viability, T/C (second compound 10 µM, first compound 0.003 µM) is 44.3%; the viability, T/C under setting [22] was 45%; the viability, T/C under setting [23] is 38.9%; the viability, T/C under setting [24] is 37.8%; the viability, T/C under setting [25] is 44.1%.
As to `C=CC(=O)N1CCN(c2nc(=O)n(-c3c(C)ccnc3C(C)C)c3nc(-c4c(O)cccc4F)c(F)cc23)C(C)C1` (stereo not drawn), the viability, T/C is, setting by setting: (compound 0.0316 µM) 101% and 99.3%; (compound 0.1 µM) 104% and 97%; (compound 0.316 µM) 113% and 121%; (compound 1 µM) 120% and 108%; (compound 3.16 µM) 149% and 144%; (compound 10 µM) 187% and 181%. Also, the IC50 (curve of compound) was more than 10000 nM.
Turning to `CC(C)NCC(C(=O)N1CCN(c2ncnc3c2C(C)CC3O)CC1)c1ccc(Cl)cc1` (stereo not drawn), the viability, T/C was 92.1% [middle of 13 runs] (compound 0.1 µM); 79.9% [middle of 13 runs] (compound 0.316 µM); 64.4% [middle of 13 runs] (compound 1 µM); 53.1% [middle of 13 runs] (compound 3.16 µM); 42.7% [middle of 13 runs] (compound 10 µM).
For the compound `CC(C)n1nc(-c2ccc3oc(N)nc3c2)c2c(N)ncnc21`, the viability, T/C runs as follows: (compound 0.000316 µM) 97% and 95%; (compound 0.001 µM) 90.5% and 88.2%; (compound 0.00316 µM) 82.9% and 83.9%; (compound 0.01 µM) 70% and 77.5%; (compound 0.0316 µM) 59.4% and 57.2%; (compound 0.1 µM) 39.2% and 46.5%. Moreover, where the note is “curve of compound”, the IC50 is 51.9 nM and 70.1 nM.
